Experimental findings from patent US9849102B2, “Treatment for reducing inflammation” (ISIFER AB, priority 2010, dated 2017) are described below.

“Also recorded” adds a separate entry of the source. A value given as a limit tells only on which side of the number the result lay.

Common to all, as to type: cell-based, human
The subject of one test is IL-1β. As to the kind of experiment: ELISA of IL-1β in cell medium of endometriosis cells incubated with lidocaine. As for the experimental part:
(§1) During laparotomy, human endometriosis tissue biopsies from endometriosis cysts were obtained from four women during laparotomy. The tissue samples were handled aseptically, transported to the laboratory and frozen in fluid nitrogen to −150° C. The biopsies were later verified histologically as endometriosis tissue. The sampling procedure was approved by the Ethical Committee. The frozen endometriosis tissues were thawed in water at +37° C. and then transferred to test tubes. Two tissue biopsy samples were taken from each endometrioma and prepared as follows: the endometriosis tissue covering the inside of endometriosis cysts was detached from encapsulating fibrous tissue by gentle scraping with a knife. The tissue was then exposed for 0.2% collagenase Type III (Worthington Biochemical Corporation Freehold, N.J., USA) for 2 h. The cell suspension was then centrifuged at 1500 rpm for 10 min. The cells were re-suspended in RPMI 1640 cell culture medium with L-glutamine and phenol red (Invitrogen Ltd), 20% Foetal Bovine serum (Invitrogen Ltd), sodium pyruvate, MEM 100 mM (Invitrogen Ltd), non-essential amino acids (Invitrogen Ltd), heparin 90 μg/ml (Sigma-Aldrich Fine Chemicals St Louis, Mo., USA), penicillin-streptomycin with 10.000 Units/ml penicillin G sodium and 10.000 μg/ml streptomycin sulphate in 0.85% saline (Invitrogen Ltd), Hepes buffer solution 1M (Invitrogen Ltd) and seeded in T-75 cm^2 cell culture flasks (Nunc, Roskilde, Denmark) pre-coated with 0.2% gelatin (Sigma-Aldrich). The culture medium was changed the following day and thereafter once a week. When confluent monolayers were obtained after 3 weeks, the cultures were tryptinized cultures from passages 4 and 6 were frozen in fluid nitrogen to −150° C. and later used for experiments.
(§2) The lidocaine treatments of the cells were performed in duplicates on the endometriosis cells that were used for experiments. […] The production of MCP-1, TNF-α and […] was measured according to the manufacturer's using an enzyme-linked immunosorbent assay (ELISA, Quantikine, R&D Systems, Minneapolis, Minn. 55413, USA).
For orientation: In an ELISA, binding on a coated surface is turned into a signal by an enzyme label.

The next test deals with TNF-α. As to the kind of experiment: ELISA of TNF-α production from endometriosis cells incubated with lidocaine. As for the experimental part: as §1, §2
In a further test the test system is MCP-1. As to the kind of experiment: ELISA of MCP-1 production from endometriosis cells incubated with lidocaine. As for the experimental part:
as §1, §2

The mark [1] stands for this setting: incubation with lidocaine 1 mg/ml, 24 and 48 h, versus control.

Consider `CCN(CC)CC(=O)Nc1c(C)cccc1C` [Lidocaine], for which the “concentration of IL-1β in the cell medium (in words)” value in the test on IL-1β (before and after incubation with lidocaine) is listed as “at a low level”. Moreover, the “IL-1β in Lidocaine medium 24 h” value in the test on IL-1β (human endometriosis cell culture medium, lidocaine hydrochloride 1 mg/ml, 24 h, control medium 24 h <5.00) was below 5.00 pg/mL. In addition, the “IL-1β in Lidocaine medium 48 h” value in the test with IL-1β (human endometriosis cell culture medium, lidocaine hydrochloride 1 mg/ml, 48 h, control medium 48 h <5.00) is below 5.00 pg/mL. In the test on TNF-α (human endometriosis cell culture medium, lidocaine hydrochloride 1 mg/ml, 24 h, control medium 24 h 8.2), the “TNF-α in Lidocaine medium 24 h” value was determined as 9.4 pg/mL. Besides, the “TNF-α in Lidocaine medium 48 h” value in the test on TNF-α (human endometriosis cell culture medium, lidocaine hydrochloride 1 mg/ml, 48 h, control medium 48 h 10.5) turned out to be 10.0 pg/mL. For the same molecule, in the test on TNF-α (setting [1]), the “production of TNF-α from endometriosis cells (in words)” value was “unaffected”. Besides, the “MCP-1 in Lidocaine medium 24 h” value in the test on MCP-1 (human endometriosis cell culture medium, lidocaine hydrochloride 1 mg/ml, 24 h, control medium 24 h 145.0) is 62.0 pg/mL. Further, the “MCP-1 in Lidocaine medium 48 h” value with MCP-1 (human endometriosis cell culture medium, lidocaine hydrochloride 1 mg/ml, 48 h, control medium 48 h 315.0) came out at 122.0 pg/mL. In addition, in the test on MCP-1 (setting [1]), the “MCP-1 production from endometriosis cells (in words)” value was “substantial reduction; also recorded: seems to be reduced”.
